# Data published in ChEMBL document CHEMBL1142881, “Structure-activity relationships of 19-norvitamin D analogs having a fluoroethylidene group at the C-2 position” (Bioorg Med Chem, 2007).
# pEC50: −log10 of the molar value. “And” between values parts separate entries of the source, which are not always exact repeats. Identical values can stand only once.
# Legend:
# Vitamin D3 receptor = molecular target: T1, Vitamin D3 receptor (Homo sapiens, UniProt P11473); test: […] of human VDR induced-transcriptional transactivation of luciferase reporter gene in COS7 cells after 24 hrs; assay type: cell-based, COS-7
# T1 sequence (P11473 whole entry): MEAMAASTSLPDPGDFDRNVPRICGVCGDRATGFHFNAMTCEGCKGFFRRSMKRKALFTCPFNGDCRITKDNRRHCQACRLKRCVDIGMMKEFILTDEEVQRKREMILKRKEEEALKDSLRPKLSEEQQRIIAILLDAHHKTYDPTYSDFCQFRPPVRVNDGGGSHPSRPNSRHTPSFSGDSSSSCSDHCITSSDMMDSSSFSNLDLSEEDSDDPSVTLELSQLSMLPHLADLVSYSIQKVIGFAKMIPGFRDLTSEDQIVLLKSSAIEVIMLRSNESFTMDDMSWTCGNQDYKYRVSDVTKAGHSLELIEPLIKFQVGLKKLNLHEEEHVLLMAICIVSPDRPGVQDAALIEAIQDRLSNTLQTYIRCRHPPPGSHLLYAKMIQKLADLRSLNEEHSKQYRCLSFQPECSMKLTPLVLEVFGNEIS
# [1] = molecular target: T2, Vitamin D3 receptor (Rattus norvegicus) (UniProt P13053); test: Displacement of [3H]1-alpha,25-(OH)2D3 from rat recombinant VDR ligand-binding domain expressed in Escherichia coli BL21 realtive to 1-alpha,25-(OH)2D3
# T2 sequence (whole entry): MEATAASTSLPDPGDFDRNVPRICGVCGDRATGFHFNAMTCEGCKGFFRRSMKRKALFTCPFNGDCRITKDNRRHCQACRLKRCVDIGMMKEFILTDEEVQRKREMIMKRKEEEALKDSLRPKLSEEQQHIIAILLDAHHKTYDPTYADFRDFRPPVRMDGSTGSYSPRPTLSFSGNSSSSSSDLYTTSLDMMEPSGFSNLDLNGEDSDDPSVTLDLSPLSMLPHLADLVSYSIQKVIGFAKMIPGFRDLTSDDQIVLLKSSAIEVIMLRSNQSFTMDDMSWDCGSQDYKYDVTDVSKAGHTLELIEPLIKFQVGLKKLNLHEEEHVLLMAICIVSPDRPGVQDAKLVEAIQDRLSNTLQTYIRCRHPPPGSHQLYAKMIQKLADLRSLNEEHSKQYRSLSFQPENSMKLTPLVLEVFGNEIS
# [2] = molecular target: T3, Vitamin D3 receptor (Homo sapiens) (UniProt P11473); test: Displacement of [3H]1-alpha,25-(OH)2D3 from thymus VDR realtive to 1-alpha,25-(OH)2D3
# T3 sequence (whole entry): T1 sequence (P11473 whole entry)
# [3] = molecular target: T3, Vitamin D3 receptor (Homo sapiens); test: […] of human VDR induced-transcriptional transactivation of luciferase reporter gene in COS7 cells after 24 hrs relative to 1-alpha,25-(OH)2D3; assay type: cell-based; conditions: COS-7
structure (smiles),measurement,setting,value
C[C@@H](CCCC(C)(C)O)C1CCC2/C(=C/C=C3C[C@@H](O)C(=CCF)[C@H](O)C3)CCCC21C (some centres undefined) [listing 1 of 3 here],pEC50,Vitamin D3 receptor,8.96
C[C@H](CCCC(C)(C)O)C1CCC2/C(=C/C=C3C[C@@H](O)C(=CCF)[C@H](O)C3)CCCC21C (some centres undefined) [listing 1 of 3 here],Activity,[1],0.77% and 0.05%
C[C@H](CCCC(C)(C)O)C1CCC2/C(=C/C=C3C[C@@H](O)C(=CCF)[C@H](O)C3)CCCC21C (some centres undefined) [listing 2 of 3 here],pEC50,Vitamin D3 receptor,9.30
C[C@@H](CCCC(C)(C)O)C1CCC2/C(=C/C=C3C[C@@H](O)C(=CCO)[C@H](O)C3)CCCC21C (some centres undefined),Activity,[2],0.02% and 1.6%
same,Activity,[3],4.2 and 12.5
C[C@@H](CCCC(C)(C)O)C1CCC2/C(=C/C=C3C[C@@H](O)C(=CCF)[C@H](O)C3)CCCC21C (some centres undefined) [listing 2 of 3 here],Activity,[1],0.07% and 1.08%
C[C@H](CCCC(C)(C)O)C1CCC2/C(=C/C=C3C[C@@H](O)C(=CCF)[C@H](O)C3)CCCC21C (some centres undefined) [listing 3 of 3 here],pEC50,Vitamin D3 receptor,8.66
C[C@@H](CCCC(C)(C)O)C1CCC2/C(=C/C=C3C[C@@H](O)C(=CCF)[C@H](O)C3)CCCC21C (some centres undefined) [listing 3 of 3 here],pEC50,Vitamin D3 receptor,10.15
C[C@H](CCCC(C)(C)O)C1CCC2/C(=C/C=C3C[C@@H](O)C(=CCO)[C@H](O)C3)CCCC21C (some centres undefined),Activity,[2],2% and 0.007%
